This note sets out measurements from ChEMBL document CHEMBL5120917, “Ferroptosis Inhibitory Aromatic Abietane Diterpenoids from Ajuga decumbens and Structural Revision of Two 3,4-Epoxy Group-Containing Abietanes” (J Nat Prod, 2022).

SMILES strings stand for the structures. The source made the active and inactive calls. No cut-off for these calls is given here. A value given as a limit tells only on which side of the number the result lay.

Data set [1] relates to HT-22. As to the kind of experiment: Anti-ferroptotic activity against RSL3-induced ferroptosis in […] HT-22 cells assessed as cell viability measured after 24 hrs by MTT assay. Format: functional, cell-based. The note with it: Mus musculus, HT-22, 24 h. On the technique in general: Tetrazolium dyes change colour on reduction, which living cells bring about.
The nature of data set [2]: Cytotoxicity against […] HT-22 cells assessed as reduction in cell viability measured after 24 hrs by MTT assay. The following applies: mouse. Format: toxicity, cell-based.
A short description of data set [3]: Antioxidant activity assessed as DPPH radical scavenging activity at 100 uM measured for 30 mins by microplate spectrophotometric analysis. Type of data set: functional.
The subject of data set [4] is HT-22. The experiment in a line: Anti-ferroptotic activity against RSL3-induced ferroptosis in […] HT-22 cells assessed as cell viability at 1 uM measured after 24 hrs by MTT assay. Type of data set: functional. The following applies: read-out: Activity.
In data set [5] the test system is HT-22. The experiment in a line: Reduction in lipid ROS accumulation in RSL-3 treated […] HT-22 cells assessed as fluorescence intensity incubated for 4 hrs by C11-BODIPY staining based flow cytometry analysis. The note with it: Mus musculus, dose 25-100 nM. Type of data set: functional, cell-based. A general note: Flow cytometry measures light scatter and fluorescence of single cells or particles in a stream.

The subject of data set [6] is HT-22. As to the kind of experiment: Reversal of RSL-3 induced PTGS2 mRNA expression in […] HT-22 cells incubated for 4 hrs by […] analysis. Type of data set: functional, cell-based. The following applies: Mus musculus, dose 25-100 nM.
Data set [7] has as its system HT-22. The experiment in a line: Reduction in cytosolic ROS accumulation in RSL-3 treated […] HT-22 cells assessed as fluorescence intensity incubated for 4 hrs by carboxy-H2DCFDA staining based flow cytometry analysis. Format: functional, cell-based. The following applies: Mus musculus, dose 25-100 nM.
A short description of data set [8]: Metal chelating activity assessed as Fe2+-compound complex formation by UV-visible spectrophotometry.

In the case of `C[C@@H]1COc2c(O)c3c(c(O)c21)C(=O)C=C1[C@]3(C)CC[C@]2(C)O[C@]12C`, the EC50 in the data set on HT-22 [1] came out at 406 nM. In data set [2], the CC50 at 24 h was greater than 40000 nM. In addition, the outcome in data set [3] was Active.

For `CC1=C(C)C2=CC(=O)c3c(O)c4c(c(O)c3[C@@]2(C)CC1)OC[C@H]4C`, the EC50 in the data set on HT-22 [1] came out at 76.2 nM. Besides, the CC50 at 24 h in data set [2] was greater than 40000 nM. Also, the result in data set [3] was Active.

Consider `CC1=C(C)C2=CC(=O)c3c(O)c4c(c(O)c3[C@@]2(C)CC1=O)OC[C@H]4C`, for which the viability at 1 µM with HT-22 [4] was less than 50%. Moreover, the CC50 at 24 h in data set [2] was greater than 40000 nM. In addition, in data set [3], the outcome was Active.

For the molecule `CCOC(=O)c1ccc(NC2CCCCC2)c(N)c1`, the EC50 in the data set on HT-22 [1] is 81.2 nM.

On to `Cc1coc2c(O)c3c(c(O)c12)C(=O)C=C1[C@]3(C)CC[C@]2(C)O[C@]12C`, for which, in the data set with HT-22 [1], the EC50 was 348 nM. Moreover, the CC50 at 24 h in data set [2] is greater than 40000 nM. Moreover, the outcome in data set [3] was Active.

For the molecule `C=CCc1c(O)c2c(c(O)c1OC)[C@@]1(C)CCC(C)=C(C)C1=CC2=O`, the EC50 with HT-22 [1] was 308 nM. Moreover, the CC50 at 24 h in data set [2] was greater than 40000 nM. The outcome in data set [3] was Active.

In the case of `CC1=C(C)C2=CC(=O)[C@@]34O[C@@]3(C(=O)c3oc(C)cc3C4=O)[C@@]2(C)CC1`, the viability at 1 µM with HT-22 [4] is less than 50%. Moreover, the CC50 at 24 h in data set [2] was greater than 40000 nM.

`C[C@@H]1COc2c(O)c3c(c(O)c21)C(=O)CC1C(C)(C)CCC[C@]31C` (some centres not stated): in the data set on HT-22 [4], the viability at 1 µM is less than 50%. Besides, the CC50 at 24 h in data set [2] is greater than 40000 nM.

On to `CC1=C(C)C2=CC(=O)c3c(c(O)c4occ(C)c4c3O)[C@@]2(C)CC1`, for which the result (in the data set with HT-22 [5]; with HT-22 [6]; in the data set with HT-22 [7]; in data set [3]) was Active. In addition, the EC50 in the data set on HT-22 [1] was found to be 56.1 nM. Further, the CC50 at 24 h in data set [2] was greater than 40000 nM.

With `CC1=C(C)C2=CC(=O)c3c(c(O)c4oc(C)cc4c3O)[C@@]2(C)CC1`, in the data set with HT-22 [1], the EC50 came to 526 nM. The CC50 at 24 h in data set [2] is greater than 40000 nM. Moreover, the result in data set [3] was Active.

`CC(=O)N(O)CCCCCNC(=O)CCC(=O)N(O)CCCCCNC(=O)CCC(=O)N(O)CCCCCN`: in data set [8], the result was Active.

As to `CC1=C(C)C2=CC(=O)[C@@]34O[C@@]3(C(=O)c3occ(C)c3C4=O)[C@@]2(C)CC1`, in the data set on HT-22 [4], the viability at 1 µM was less than 50%. In data set [2], the CC50 at 24 h was greater than 40000 nM.

For orientation: EC50 means the midpoint of the concentration-response curve. What is called CC50 is the concentration that lowers cell viability or growth by half.
